Assay results published in the NIST ThermoML archive (doi:10.1021/acs.jced.7b00485).
± gives the expanded uncertainty stated by the source.

Details: Liquid, Closed cell (Static) method

Row | SMILES | vapor or sublimation pressure (273.27 K) [kPa] | vapor or sublimation pressure (288.25 K) [kPa] | vapor or sublimation pressure (294.23 K) [kPa] | vapor or sublimation pressure (296.23 K) [kPa] | vapor or sublimation pressure (308.21 K) [kPa] | vapor or sublimation pressure (323.19 K) [kPa]
1 | CCCC [butane] | 104 ± 1 | 177 ± 1 | 215 ± 1 | 231 ± 1 | 332 ± 1 | 498 ± 1
2 | FC(F)(F)C(F)(F)F [hexafluoroethane] | 1851 ± 3 | 2708 ± 4 | – | – | – | –
